Results from ChEMBL document CHEMBL1136500, “1,3-dihydrobenzo[c]furan nucleoside analogues: additional studies of the thymine derivative” (Bioorg Med Chem Lett, 2003).
Active and inactive are the calls of the source. The calls are words filed in the database; no cut-off is given here.

Key:
[1] = Partition coefficient (logP); assay type: physicochemical; details: octanol/water
[2] = Half life at pH 7.3; assay type: ADME; details: buffer
[3] = Half life at pH 2.0; assay type: ADME; details: buffer
[4] = target: Human immunodeficiency virus type 1 reverse transcriptase (Human immunodeficiency virus 1) (UniProt Q72547); assay: Inhibitory activity against human immunodeficiency virus-1 reverse transcriptase (HIV-1 RT) at a concentration up to 10 uM; IA=Inactive
[5] = Half life at pH 1.2; assay type: ADME; details: buffer
[6] = target: Human immunodeficiency virus type 1 reverse transcriptase (Human immunodeficiency virus 1) (UniProt Q72547); assay: Inhibitory activity against human immunodeficiency virus-1 reverse transcriptase (HIV-1 RT) at a concentration up to 100 uM; IA-Inactive
[7] = target: Human immunodeficiency virus type 1 reverse transcriptase (Human immunodeficiency virus 1) (UniProt Q72547); assay: Inhibitory activity against human immunodeficiency virus-1 reverse transcriptase (HIV-1 RT)

Row | Structure (SMILES) | logP [1] | half-life [2] [days] | half-life [3] [days] | Activity [4] | half-life [5] [days] | Activity [6] | IC90 [7] [µM]
1 | Cc1cn([C@@H]2O[C@H](CO)c3ccccc32)c(=O)[nH]c1=O | 0.55 | 34 | 31 | inactive | 18 | – | –
2 | Cc1cn([C@@H]2O[C@H](COP(=O)(O)OP(=O)(O)OP(=O)(O)O)c3ccccc32)c(=O)[nH]c1=O | – | – | – | – | – | inactive | –
3 | Cc1cn([C@H]2C=C[C@@H](CO)O2)c(=O)[nH]c1=O [STAVUDINE] | -0.77 | 6 | 5 | – | 3 | – | 0.1
